Here are results for 17 compounds from patent US4284639A, “Combating fungi with 1-phenoxy-2-(2,4-dichlorophenyl)-1-(1,2,4-triazol-1-yl)-ethan-2-ones and -ols” (Bayer Aktiengesellschaft, priority 1977, dated 1981).

Assay [1] concerns Erysiphe graminis var. hordei. Kind of assay: Shoot treatment test/powdery mildew of cereal/protective (leaf-destructive mycosis). The class given is in vivo. Conditions: 0.025 % by weight active compound in the spray liquor; barley; after 6 days; protective. How it is done:
To produce a suitable preparation of active compound, 0.25 part by weight of active compound was taken up in 25 parts by weight of dimethylformamide and 0.06 part by weight of alkylaryl polyglycol ether; 975 parts by weight of water were then added. The concentrate was diluted with water to the desired final concentration of the spray liquor.
To test for protective activity, single-leaved young barley plants of the Amsel variety were sprayed with the preparation of active compound until dew-moist. After drying, the barley plants were dusted with spores of Erysiphe graminis var. hordei.
After 6 days' dwell time of the plants at a temperature of 21°-22° C. and 80-90% atmospheric humidity the occurrence of mildew pustules on the plants was evaluated. The degree of infection was expressed as a percentage of the infection of the untreated control plants. 0% denoted no infection and 100% denoted the same degree of infection as in the case of the untreated control.

For a further assay, the system named is Puccinia recondita. Kind of assay: Shoot treatment test/cereal rust (leaf-destructive mycosis)/protective. The class given is in vivo. Conditions: 0.025 % by weight active compound in the spray liquor; wheat; after 10 days; protective. How it is done:
To produce a suitable preparation of active compound, 0.25 part by weight of active compound was taken up in 25 parts by weight of dimethylformamide and 0.06 part by weight of alkylaryl polyglycol ether and then 975 parts by weight of water were added. The concentrate was diluted with water to the desired final concentration of the spray liquor.
To test the protective activity, one-leaved young wheat plants of the Michigan Amber variety were inoculated with a uredospore suspension of Puccinia recondita in 0.1% strength aqueous agar. After the spore suspension had dried on, the wheat plants were sprayed with the preparation of active compound until dew-moist and were placed, for incubation, in a greenhouse for 24 hours at about 20° C. and 100% relative atmospheric humidity.
After 10 days' dwell time of the plants at a temperature of 20° C. and 80-90% atmospheric humidity, the occurrence of rust pustules on the plant was evaluated. The degree of infection was expressed as a percentage of the infection of the untreated control plants. 0% denoted no infection and 100% denoted the same degree of infection as in the case of the untreated control.

Another assay deals with Candida albicans. Kind of assay: Anti-mycotic in vitro activity, series dilution test. The class given is cell-based. The settings on record: read-out: Minimum inhibitory concentration. How it is done:
(§1) The in vitro tests were carried out in a series dilution test with germ inocula of an average of 5×10^4 germs/ml of substrate. The nutrient medium was (a) for dermatophytes and moulds: Sabouraud's milieu d'epreuve and (b) for yeasts; meat extract/glucose broth.
(§2) The incubation temperature was 28° C. and the duration of incubation was 24 to 96 hours.

The test system of a further assay is Aspergillus species. The assay is described as above. In kind it is cell-based. The settings on record: read-out: Minimum inhibitory concentration. How it is done:
as §1, §2

In another assay the test system is Penicillium commune. Described as above. The class given is cell-based. The settings on record: read-out: Minimum inhibitory concentration. How it is done:
as §1, §2

For a further assay, the system named is Microsporon felineum. The assay is described as above. The class given is cell-based. Conditions: read-out: Minimum inhibitory concentration. The procedure: as §1, §2
The next assay deals with Podosphaera leucotricha. Kind of assay: Podosphaera test (apple)/protective. Conditions: apple seedlings, 10 days after inoculation, protective. In kind it is in vivo. How it is done: (§3) Solvent: 4.7 parts by weight of acetone
(§4) Emulsifier: 0.3 part by weight of alkylaryl polyglycol ether
(§5) Water: 95 parts by weight
The amount of active compound required for the desired concentration of the active compound in the spray liquid was mixed with the stated amount of solvent, and the concentrate was diluted with the stated amount of water which contained the stated amount of emulsifier.
Young apple seedlings in the 4-6 leaf stage were sprayed with the spray liquid until dripping wet. The plants remained in a greenhouse for 24 hours at 20° C. and at a relative atmospheric humidity of 70%. They were then inoculated by dusting the conidia of the apple powdery mildew causative organism (Podosphaera leucotricha) and placed in a greenhouse at a temperature of 21°-23° C. and at a relative atmospheric humidity of about 70%.
10 days after the inoculation, the infection of the seedlings was determined. The assessment data were converted to % infection. 0% meant no infection; 100% meant that the plants were completely infected.

The subject of another assay is Trichophyton mentagr. Kind of assay: Anti-mycotic in vitro activity, series dilution test. In kind it is cell-based, Trichophyton mentagrophytes. The settings on record: read-out: Minimum inhibitory concentration. How it is done:
as §1, §2

The subject of the next assay is Erysiphe cicohiacearum. Kind of assay: Erysiphe test (cucumber)/protective. The class given is in vivo. Conditions: cucumber plants, after 12 days, protective. The procedure: as §3, §4, §5
The amount of the active compound required for the desired concentration of active compound in the spray liquid was mixed with the stated amount of solvent and the concentrate was diluted with the stated amount of water containing the stated amount of emulsifier.
Young cucumber plants with about three foliage leaves were sprayed with the spray liquid until dripping wet. The cucumber plants remained in a greenhouse for 24 hours to dry. They were then, for the purpose of inoculation, dusted with conidia of the fungus Erysiphe cicohiacearum. The plants were subsequently placed in a greenhouse at 23°-24° C. and at a relative atmospheric humidity of about 75%.
After 12 days, the infection of the cucumber plants was determined. The assessment data were converted to percent infection. 0% meant no infection; 100% meant that the plants were totally infected.

The next assay relates to Torulopsis glabrata. Kind of assay: Anti-mycotic in vitro activity, series dilution test. The class given is cell-based. Conditions: Nakaseomyces glabratus; γ/ml of nutrient medium; 28° C.; 24 to 96 hours; read-out: Minimum inhibitory concentration. How it is done:
as §1, §2

Setting [2] is: γ/ml of nutrient medium, 28° C., 24 to 96 hours.

In brackets after ≈: the same amount, converted by molar mass. Read-outs that look alike come from different tables or passages of the source.

As for `CC(C)(C)C(=O)C(Oc1ccc(-c2ccc(Cl)cc2)cc1)n1cncn1` (stereo not shown) [A, reference compound], the “Infection in % of the untreated control” value in [1] stood at 55.0%.
`CC(C)(C)C(=O)C(Oc1ccc(-c2ccccc2)cc1)n1cncn1` (stereo not shown) [B, reference compound]: the “Infection in % of the untreated control” value in the assay with Puccinia recondita came to 33.8%.
Still for that read-out and setting: under `CC(C)(C)C(O)C(Oc1ccc(Cl)cc1Cl)n1cncn1` (stereo not shown) [C, reference compound] stands 33.8%.
`Cl.O=C(c1ccc(Cl)cc1Cl)C(Oc1ccc(Cl)cc1)n1cncn1` (stereo not shown) [Compound 2, 1-(4-Chlorophenoxy)-2-(2,4-dichlorophenyl)-1-(1,2,4-triazol-1-yl)-ethan-2-one hydrochloride]: the MIC in the assay with Candida albicans (setting [2]) is 32 µg/mL; with Aspergillus species (setting [2]), over 64 µg/mL; in the assay with Penicillium commune (setting [2]), over 64 µg/mL; with Microsporon felineum (setting [2]), 32 µg/mL; with Trichophyton mentagr. (setting [2]), 4 µg/mL. Further, the figures for the “Infection in % of the untreated control” value (in the assay on Puccinia recondita; in assay [1]) were 12.5% and 0.0%, respectively. For the same compound, the “Infection in % at an active compound concentration of 0.001%” value (“Infection in % … of 0.001%” below) in the assay with Podosphaera leucotricha turned out to be 25%. The “Infection in % at an active compound concentration of 0.00025%” value (shortened to “Infection in % … of 0.00025%”) with Erysiphe cicohiacearum is reported as 12%.
Turning to `Cl.OC(c1ccc(Cl)cc1Cl)C(Oc1ccc(Cl)cc1)n1cncn1` (stereo not shown) [Compound 3, 1-(4-chlorophenoxy)-2-(2,4-dichlorophenyl)-1-(1,2,4-triazol-1-yl)-ethan-2-ol hydrochloride], the MIC was 8 µg/mL in the assay with Candida albicans (setting [2]); 64 µg/mL in the assay with Aspergillus species (setting [2]); over 64 µg/mL in the assay on Penicillium commune (setting [2]); 32 µg/mL in the assay on Microsporon felineum (setting [2]); 4 µg/mL in the assay with Trichophyton mentagr. (setting [2]). In addition, the “Infection in % of the untreated control” value in [1] is reported as 7.5%. For the same compound, in the assay on Podosphaera leucotricha, the “Infection in % … of 0.001%” value turned out to be 0%. Further, in the assay on Erysiphe cicohiacearum, the “Infection in % … of 0.00025%” value was 6%.
Consider `O=C(c1ccc(Cl)cc1Cl)C(Oc1ccc(Cl)cc1Cl)n1cncn1` (stereo not shown) [Compound 4], for which the “Infection in % of the untreated control” value in assay [1] is reported as 0.0%.
As to `O=C(c1ccc(Cl)cc1Cl)C(Oc1ccc(-c2ccccc2)cc1)n1cncn1` (stereo not shown) [Compound 5], the MIC with Candida albicans (setting [2]) was 32 µg/mL (≈ 75.4 µM); in the assay on Aspergillus species (setting [2]) it was over 64 µg/mL; in the assay with Penicillium commune (setting [2]), over 64 µg/mL; in the assay with Torulopsis glabrata, 32 µg/mL (≈ 75.4 µM); in the assay with Trichophyton mentagr. (setting [2]), under 1 µg/mL. In addition, the “Infection in % of the untreated control” value with Puccinia recondita is given as 10.0%.
With `O=C(c1ccc(Cl)cc1Cl)C(Oc1ccc(-c2ccc(Cl)cc2)cc1)n1cncn1` (stereo not shown) [Compound 6], the “Infection in % of the untreated control” value in [1] came out at 16.3%.
Regarding `OC(c1ccc(Cl)cc1Cl)C(Oc1ccc(Cl)cc1Cl)n1cncn1` (stereo not shown) [Compound 14], the MIC with Candida albicans (setting [2]) was 8 µg/mL (≈ 19.1 µM); in the assay with Aspergillus species (setting [2]), 64 µg/mL (≈ 153 µM); with Penicillium commune (setting [2]) it was over 64 µg/mL; in the assay with Microsporon felineum (setting [2]), 32 µg/mL (≈ 76.4 µM); in the assay with Torulopsis glabrata, 32 µg/mL (≈ 76.4 µM); in the assay with Trichophyton mentagr. (setting [2]), 4 µg/mL (≈ 9.54 µM). The “Infection in % of the untreated control” value in assay [1] worked out at 0.0%. The “Infection in % … of 0.001%” value with Podosphaera leucotricha was 0%. Besides, in the assay on Erysiphe cicohiacearum, the “Infection in % … of 0.00025%” value came to 16%.
Turning to `OC(c1ccc(Cl)cc1Cl)C(Oc1ccc(-c2ccccc2)cc1)n1cncn1` (stereo not shown) [Compound 15], the MIC is 32 µg/mL (≈ 75.1 µM) in the assay with Candida albicans (setting [2]); over 64 µg/mL with Aspergillus species (setting [2]); over 64 µg/mL in the assay with Penicillium commune (setting [2]); under 1 µg/mL in the assay on Microsporon felineum (setting [2]); 1 µg/mL (≈ 2.35 µM) in the assay on Torulopsis glabrata; under 1 µg/mL in the assay with Trichophyton mentagr. (setting [2]). For the same compound, in assay [1], the “Infection in % of the untreated control” value was 37.5%. The “Infection in % … of 0.00025%” value with Erysiphe cicohiacearum turned out to be 12%.
`OC(c1ccc(Cl)cc1Cl)C(Oc1ccc(-c2ccc(Cl)cc2)cc1)n1cncn1` (stereo not shown) [Compound 16]: the MIC in the assay with Candida albicans (setting [2]) is 8 µg/mL (≈ 17.4 µM); with Aspergillus species (setting [2]) it was over 64 µg/mL; with Penicillium commune (setting [2]) it was over 64 µg/mL; in the assay on Microsporon felineum (setting [2]), 4 µg/mL (≈ 8.68 µM); in the assay on Torulopsis glabrata, 1 µg/mL (≈ 2.17 µM); with Trichophyton mentagr. (setting [2]) it was under 1 µg/mL. In [1], the “Infection in % of the untreated control” value stood at 37.5%.
Consider `CC(C)(C)C(=O)C(Oc1ccc(Cl)cc1)n1cncn1` (stereo not shown) [D, reference compound], for which the MIC in the assay with Candida albicans was 40 µg/mL (≈ 136 µM); in the assay on Aspergillus species it was 100 µg/mL (≈ 340 µM); in the assay on Penicillium commune, over 100 µg/mL; with Microsporon felineum, 100 µg/mL (≈ 340 µM); with Trichophyton mentagr. it was 4 µg/mL (≈ 13.6 µM). In addition, the “Infection in % … of 0.001%” value in the assay on Podosphaera leucotricha worked out at 42%.
`CC(C)(C)C(O)C(Oc1ccc(-c2ccccc2)cc1)n1cncn1` (stereo not shown) [E, reference compound]: in the assay with Erysiphe cicohiacearum, the “Infection in % … of 0.00025%” value is 62%.
`CC(C)(C)C(=O)C(Oc1ccc(Cl)cc1Cl)n1cncn1` (stereo not shown) [F, reference compound]: the MIC with Candida albicans (setting [2]) is 40 µg/mL (≈ 122 µM); in the assay on Aspergillus species (setting [2]), 100 µg/mL (≈ 305 µM); with Penicillium commune (setting [2]), over 100 µg/mL; in the assay on Microsporon felineum (setting [2]), 100 µg/mL (≈ 305 µM); in the assay on Trichophyton mentagr. (setting [2]) it was 4 µg/mL (≈ 12.2 µM).
As for `O=C(c1ccc(Cl)cc1)C(Oc1ccc(Cl)cc1Cl)n1cncn1` (stereo not shown) [G, reference compound], in the assay with Penicillium commune (setting [2]), the MIC is over 100 µg/mL.
Turning to `COC(=O)c1ccc(OC(C(O)C(C)(C)C)n2cncn2)cc1` (stereo not shown) [H, reference compound], the MIC in the assay with Candida albicans (setting [2]) was 64 µg/mL (≈ 200 µM); with Aspergillus species (setting [2]), over 64 µg/mL; with Penicillium commune (setting [2]), over 64 µg/mL; in the assay with Microsporon felineum (setting [2]), 64 µg/mL (≈ 200 µM); in the assay on Trichophyton mentagr. (setting [2]) it was 4 µg/mL (≈ 12.5 µM).
With `OC(c1ccccc1)C(Oc1ccc(Cl)cc1)n1cncn1` (stereo not shown) [K, reference compound], the results for the MIC with Candida albicans (setting [2]), in the assay with Penicillium commune (setting [2]) and in the assay on Trichophyton mentagr. (setting [2]) were 64 µg/mL (≈ 203 µM), over 64 µg/mL and 64 µg/mL (≈ 203 µM), respectively.
